Test results as given in patent US11970474B2, “Substituted benzodiazoles and use thereof in therapy” (THOMAS HELLEDAYS STIFTELSE FÖR MEDICINSK FORSKNING, priority 2018, dated 2024).

Molecular target: OGG1 (Homo sapiens (Human), UniProt O15527)
Assay: In vitro OGG1 activity assay
Assay type: biochemical
Settings: 800 pM OGG1 enzyme, 2 nM human APEX1, 10 nM 8-oxoA:C substrate
Protocol: Method 1: In Vitro OGG1 Activity Assay OGG1 activity is assayed by measuring the increase in fluorescence from a duplex oligonucleotide containing an OGG1 substrate and a fluorophore in close proximity that are quenched by a quencher on the complementary strand. […] OGG1 activity releases the substrate base from DNA by cleaving the N-glycosidic bond between base and deoxyribose. The resulting apurinic site is cleaved by an excessive amount APEX1 activity which cause the duplex to melt, which in turn cause the fluorophore to become unquenched. Compounds to be tested are dissolved in DMSO and nano-dispensed directly into black 384-well plates, followed by transfer of enzyme and substrate solutions. […] The fluorescent signal is recorded in a plate reader equipped with suitable filters to register fluorescein fluorescence.

Chain of OGG1 (O15527 whole entry): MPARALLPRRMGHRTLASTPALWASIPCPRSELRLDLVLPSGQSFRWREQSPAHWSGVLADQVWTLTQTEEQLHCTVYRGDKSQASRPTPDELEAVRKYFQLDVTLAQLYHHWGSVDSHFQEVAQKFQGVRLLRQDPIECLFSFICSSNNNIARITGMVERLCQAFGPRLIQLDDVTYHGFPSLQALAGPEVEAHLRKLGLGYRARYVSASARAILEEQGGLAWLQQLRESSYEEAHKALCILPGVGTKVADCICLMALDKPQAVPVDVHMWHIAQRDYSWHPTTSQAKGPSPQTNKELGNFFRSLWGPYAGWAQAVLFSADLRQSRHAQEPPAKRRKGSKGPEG

| Structure (SMILES) | IC50 [nM] |
| --- | --- |
| COc1ccc(NC(=O)N2CCC(n3c(=O)[nH]c4c(N5Cc6cn[nH]c6C5)cccc43)CC2)cc1Cl [Example 108, N-(3-chloro-4-methoxyphenyl)-4-(2-oxo-4-{1H,4H,5H,6H-pyrrolo[3,4-c]pyrazol-5-yl}-2,3-dihydro-1H-1,3-benzodiazol-1-yl)piperidine-1-carboxamide] | 2530 |
| O=C(Nc1cnc(Cl)c(Cl)c1)N1CCC(n2c(=O)[nH]c3c(Br)cccc32)CC1 [Example 109, 4-(4-Bromo-2-oxo-2,3-dihydro-1H-1,3-benzodiazol-1-yl)-N-(5,6-dichloropyridin-3-yl)piperidine-1-carboxamide] | 6460 |
| Cc1nc(NC(=O)N2CCC(n3c(=O)[nH]c4c(Br)cccc43)CC2)ccc1Cl [Example 111, 4-(4-Bromo-2-oxo-2,3-dihydro-1H-1,3-benzodiazol-1-yl)-N-(5-chloro-6-methylpyridin-2-yl)piperidine-1-carboxamide] | 5810 |
| CC1CC(n2c(=O)[nH]c3c(Br)cccc32)CCN1C(=O)Nc1ccc(Cl)c(Cl)c1 (stereo not shown) [Example 112, 4-(4-Bromo-2-oxo-2,3-dihydro-1H-benzo[d]imidazol-1-yl)-N-(3,4-dichlorophenyl)-2-methylpiperidine-1-carboxamide] | 4940 |
| CC1CN(C(=O)Nc2ccc(Cl)c(Cl)c2)CCC1n1c(=O)[nH]c2c(Br)cccc21 (stereo not shown) [Example 113, 4-(4-Bromo-2-oxo-2,3-dihydro-1H-benzo[d]imidazol-1-yl)-N-(3,4-dichlorophenyl)-3-methylpiperidine-1-carboxamide] | 3200 |
| COc1cc(NC(=O)N2CCC(n3c(=O)[nH]c4c(Cl)cccc43)CC2)ccc1C [Example 114, 4-(4-Chloro-2-oxo-2,3-dihydro-1H-1,3-benzodiazol-1-yl)-N-(3-methoxy-4-methylphenyl)piperidine-1-carboxamide] | 690 |
| COc1cc(NC(=O)N2CCC(n3c(=O)[nH]c4c(C)cccc43)CC2)ccc1C [Example 115, N-(3-methoxy-4-methylphenyl)-4-(4-methyl-2-oxo-2,3-dihydro-1H-1,3-benzodiazol-1-yl)piperidine-1-carboxamide] | 1430 |
| COc1cc(NC(=O)N2CCC(n3c(=O)[nH]c4c(OC)cccc43)CC2)ccc1C [Example 116, 4-(4-Methoxy-2-oxo-2,3-dihydro-1H-1,3-benzodiazol-1-yl)-N-(3-methoxy-4-methylphenyl)piperidine-1-carboxamide] | 2060 |
| N#Cc1ccc(NC(=O)[C@H]2CC[C@@H](n3c(=O)[nH]c4c(Br)cccc43)CC2)cc1Cl [Example 125, (Cis)-4-(4-bromo-2-oxo-2,3-dihydro-1H-1,3-benzodiazol-1-yl)-N-(3-chloro-4-cyanophenyl)cyclohexane-1-carboxamide] | 3620 |
| N#Cc1ccc(NC(=O)[C@H]2CC[C@@H](n3c(=O)[nH]c4c(Br)cccc43)CC2)cc1 [Example 132, (Cis)-4-(4-bromo-2-oxo-2,3-dihydro-1H-1,3-benzodiazol-1-yl)-N-(4-cyanophenyl)cyclohexane-1-carboxamide] | 6830 |
| O=c1[nH]c2c(Br)cccc2n1[C@H]1CC[C@@H](C(=O)Nc2ccc(C(F)(F)F)cc2)CC1 [Example 133, (Cis)-4-(4-bromo-2-oxo-2,3-dihydro-1H-1,3-benzodiazol-1-yl)-N-[4-(trifluoromethyl)phenyl]cyclohexane-1-carboxamide] | 865 |
| O=c1[nH]c2c(Br)cccc2n1[C@H]1CC[C@@H](C(=O)Nc2ccc(OC(F)(F)F)c(Cl)c2)CC1 [Example 134, (Cis)-4-(4-bromo-2-oxo-2,3-dihydro-1H-1,3-benzodiazol-1-yl)-N-[3-chloro-4-(trifluoromethoxy)phenyl]cyclohexane-1-carboxamide] | 2740 |
| O=c1[nH]c2c(Br)cccc2n1[C@H]1CC[C@@H](C(=O)Nc2ccc(C(F)(F)F)c(F)c2)CC1 [Example 137, (Cis)-4-(4-bromo-2-oxo-2,3-dihydro-1H-1,3-benzodiazol-1-yl)-N-[3-fluoro-4-(trifluoromethyl)phenyl]cyclohexane-1-carboxamide] | 2030 |
| O=c1[nH]c2c(Br)cccc2n1[C@H]1CC[C@@H](C(=O)Nc2cccc(Cl)c2)CC1 [Example 138, (Cis)-4-(4-bromo-2-oxo-2,3-dihydro-1H-1,3-benzodiazol-1-yl)-N-(3-chlorophenyl)cyclohexane-1-carboxamide] | 2010 |
| O=c1[nH]c2c(Br)cccc2n1[C@H]1CC[C@@H](C(=O)Nc2cccc(C(F)(F)F)c2)CC1 [Example 141, (Cis)-4-(4-bromo-2-oxo-2,3-dihydro-1H-1,3-benzodiazol-1-yl)-N-[3-(trifluoromethyl)phenyl]cyclohexane-1-carboxamide] | 5480 |
| Cc1cccc(NC(=O)[C@H]2CC[C@@H](n3c(=O)[nH]c4c(Br)cccc43)CC2)c1 [Example 143, (Cis)-4-(4-bromo-2-oxo-2,3-dihydro-1H-1,3-benzodiazol-1-yl)-N-(3-methylphenyl)cyclohexane-1-carboxamide] | 1200 |

| Structure (SMILES) | IC50 [nM] |
| --- | --- |
| Cc1ccc(NC(=O)[C@H]2CC[C@@H](n3c(=O)[nH]c4c(Br)cccc43)CC2)cc1C(F)(F)F [Example 144, (Cis)-4-(4-bromo-2-oxo-2,3-dihydro-1H-1,3-benzodiazol-1-yl)-N-[4-methyl-3-(trifluoromethyl)phenyl]cyclohexane-1-carboxamide] | 983 |
| O=c1[nH]c2c(Br)cccc2n1[C@H]1CC[C@@H](C(=O)Nc2cccc3[nH]ccc23)CC1 [Example 145, (Cis)-4-(4-bromo-2-oxo-2,3-dihydro-1H-1,3-benzodiazol-1-yl)-N-(1H-indol-4-yl)cyclohexane-1-carboxamide] | 1080 |
| COc1cc(F)cc(NC(=O)[C@H]2CC[C@@H](n3c(=O)[nH]c4c(Br)cccc43)CC2)c1 [Example 155, (Cis)-4-(4-bromo-2-oxo-2,3-dihydro-1H-1,3-benzodiazol-1-yl)-N-(3-fluoro-5-methoxyphenyl)cyclohexane-1-carboxamide] | 1820 |
| COc1ccc(NC(=O)[C@H]2CC[C@@H](n3c(=O)[nH]c4c(Br)cccc43)CC2)c(F)c1 [Example 156, (Cis)-4-(4-bromo-2-oxo-2,3-dihydro-1H-1,3-benzodiazol-1-yl)-N-(2-fluoro-4-methoxyphenyl)cyclohexane-1-carboxamide] | 173 |
| N#Cc1cc(NC(=O)[C@H]2CC[C@@H](n3c(=O)[nH]c4c(Br)cccc43)CC2)ccc1Cl [Example 157, (Cis)-4-(4-bromo-2-oxo-2,3-dihydro-1H-1,3-benzodiazol-1-yl)-N-(4-chloro-3-cyanophenyl)cyclohexane-1-carboxamide] | 152 |
| COc1cc(NC(=O)[C@H]2CC[C@@H](n3c(=O)[nH]c4c(Br)cccc43)CC2)cc(C(F)(F)F)c1 [Example 158, (Cis)-4-(4-bromo-2-oxo-2,3-dihydro-1H-1,3-benzodiazol-1-yl)-N-[3-methoxy-5-(trifluoromethyl)phenyl]cyclohexane-1-carboxamide] | 6050 |
| COc1cc(NC(=O)[C@H]2CC[C@@H](n3c(=O)[nH]c4c(Br)cccc43)CC2)ccc1C#N [Example 159, (Cis)-4-(4-bromo-2-oxo-2,3-dihydro-1H-1,3-benzodiazol-1-yl)-N-(4-cyano-3-methoxyphenyl)cyclohexane-1-carboxamide] | 4940 |
| COc1ccc(NC(=O)[C@H]2CC[C@@H](n3c(=O)[nH]c4c(Br)cccc43)CC2)cc1C#N [Example 161, (Cis)-4-(4-bromo-2-oxo-2,3-dihydro-1H-1,3-benzodiazol-1-yl)-N-(3-cyano-4-methoxyphenyl)cyclohexane-1-carboxamide] | 175 |
| O=c1[nH]c2c(Br)cccc2n1[C@H]1CC[C@@H](C(=O)Nc2ccc(F)c(Cl)c2)CC1 [Example 162, (Cis)-4-(4-bromo-2-oxo-2,3-dihydro-1H-1,3-benzodiazol-1-yl)-N-(3-chloro-4-fluorophenyl)cyclohexane-1-carboxamide] | 1290 |
| COc1cc(Cl)cc(NC(=O)[C@H]2CC[C@@H](n3c(=O)[nH]c4c(Br)cccc43)CC2)c1 [Example 163, (Cis)-4-(4-bromo-2-oxo-2,3-dihydro-1H-1,3-benzodiazol-1-yl)-N-(3-chloro-5-methoxyphenyl)cyclohexane-1-carboxamide] | 3160 |
| COc1cccc(NC(=O)[C@H]2CC[C@@H](n3c(=O)[nH]c4c(Br)cccc43)CC2)c1 [Example 165, (Cis)-4-(4-bromo-2-oxo-2,3-dihydro-1H-1,3-benzodiazol-1-yl)-N-(3-methoxyphenyl)cyclohexane-1-carboxamide] | 1390 |
| Cc1cccc(NC(=O)[C@H]2CC[C@@H](n3c(=O)[nH]c4c(Br)cccc43)CC2)c1C [Example 167, (Cis)-4-(4-bromo-2-oxo-2,3-dihydro-1H-1,3-benzodiazol-1-yl)-N-(2,3-dimethylphenyl)cyclohexane-1-carboxamide] | 3890 |
| Cc1cc(NC(=O)[C@H]2CC[C@@H](n3c(=O)[nH]c4c(Br)cccc43)CC2)no1 [Example 169, (Cis)-4-(4-bromo-2-oxo-2,3-dihydro-1H-1,3-benzodiazol-1-yl)-N-(5-methyl-1,2-oxazol-3-yl)cyclohexane-1-carboxamide] | 9090 |
| Cn1cc(NC(=O)[C@H]2CC[C@@H](n3c(=O)[nH]c4c(Br)cccc43)CC2)cn1 [Example 170, (Cis)-4-(4-bromo-2-oxo-2,3-dihydro-1H-1,3-benzodiazol-1-yl)-N-(1-methyl-1H-pyrazol-4-yl)cyclohexane-1-carboxamide] | 8800 |
| COc1ccc2c(c1)[nH]c(=O)n2C1CCN(C(=O)Nc2ccc(OC)c(Cl)c2)CC1 [Example 172, N-(3-Chloro-4-methoxyphenyl)-4-(5-methoxy-2-oxo-2,3-dihydro-1H-1,3-benzodiazol-1-yl)piperidine-1-carboxamide] | 7790 |
